According to patent US12612410B2 (CHILDREN'S HOSPITAL MEDICAL CENTER, priority 2020, dated 2026):

Tests used:
[1] = target: T1, FLT3 Autoinh. (Homo sapiens, UniProt P36888); test: DiscoverX KINOMEscan competition binding, FLT3 Autoinh.
T1 construct: host or cells: E. coli BL21-derived host (T7 phage) or HEK-293
T1 sequence (P36888 564-993 limits assumed): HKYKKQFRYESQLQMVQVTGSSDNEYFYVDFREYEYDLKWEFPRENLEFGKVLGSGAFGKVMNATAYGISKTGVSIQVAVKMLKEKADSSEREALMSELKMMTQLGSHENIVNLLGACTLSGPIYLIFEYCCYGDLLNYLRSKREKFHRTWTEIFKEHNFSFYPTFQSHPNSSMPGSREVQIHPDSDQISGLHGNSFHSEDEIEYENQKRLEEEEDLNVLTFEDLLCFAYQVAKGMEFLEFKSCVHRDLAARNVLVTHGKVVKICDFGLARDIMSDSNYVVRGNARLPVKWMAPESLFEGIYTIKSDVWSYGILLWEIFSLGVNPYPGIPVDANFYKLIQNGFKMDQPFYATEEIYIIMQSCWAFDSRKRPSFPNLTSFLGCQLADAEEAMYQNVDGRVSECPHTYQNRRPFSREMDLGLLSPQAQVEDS
Text: (§1) Kinase binding data were obtained for various exemplary compounds prepared according to Examples 1-24 using the DiscoverX KINOMVIEscan® active site-directed competition binding site-directed assay protocol described below. […] As a result, the data report thermodynamic interaction affinities (Kd values), rather than IC50 values that are dependent on ATP concentrations. The assay uses a DNA-tagged version of the protein kinase, and an immobilized ligand bound to a solid support. Compounds that directly or indirectly prevent kinase binding to the immobilized ligand reduce the amount of kinase captured on the solid support, which is detected using an ultra-sensitive qPCR method. Affinity constants reported from the assay have been reported to be independent of the immobilized ligand used that is coupled to the solid support (See supplemental information in Fabian, M. A. et. al., (2005) Nat. Biotechnol. 23, 329-336; Wodicka, L. M. et. al., (2010) Chem. Biol. 17, 1241-1249.)
(§2) Kinase-tagged T7 phage strains were prepared in an E. coli host derived from the BL21 strain. E. coli were grown to log-phase and infected with T7 phage and incubated with shaking at 32° C. until lysis. The lysates were centrifuged and filtered to remove cell debris. The remaining kinases were produced in HEK-293 cells and subsequently tagged with DNA for qPCR detection. Streptavidin-coated magnetic beads were treated with biotinylated small molecule ligands for 30 minutes at room temperature to generate affinity resins for kinase assays. The liganded beads were blocked with excess biotin and washed with blocking buffer (SeaBlock (Pierce), 1% BSA, 0.05% Tween 20, 1 mM DTT) to remove unbound ligand and to reduce non-specific binding. Binding reactions were assembled by combining kinases, liganded affinity beads, and test compounds in 1× binding buffer (20% SeaBlock, 0.17×PBS, 0.05% Tween 20, 6 mM DTT). Test compounds were prepared as 111× stocks in 100% DMSO. Kds were determined using an 11-point 3-fold compound dilution series with three DMSO control points. All compounds for Kd measurements are distributed by acoustic transfer (non-contact dispensing) in 100% DMSO. The compounds were then diluted directly into the assays such that the final concentration of DMSO was 0.9%. All reactions were performed in polypropylene 384-well plates. Each was a final volume of 0.02 mL. The assay plates were incubated at room temperature with shaking for 1 hour and the affinity beads were washed with wash buffer (1×PBS, 0.05% Tween 20). The beads were then re-suspended in elution buffer (1×PBS, 0.05% Tween 20, 0.5 μM nonbiotinylated affinity ligand) and incubated at room temperature with shaking for 30 minutes. The kinase concentration in the eluates was measured by qPCR.
(§3) Binding constants (Kds) were calculated with a standard dose-response curve using the Hill equation. The Hill Slope was set to −1. Curves were fitted using a non-linear least square fit with the Levenberg-Marquardt algorithm.

[2] = target: T2, FLT3 ITD, F691L (Homo sapiens, UniProt P36888, F691L, form not given); test: DiscoverX KINOMEscan competition binding, FLT3 ITD, F691L
T2 construct: fused on or other part: DNA tag for qPCR detection (T7 phage fusion or DNA-tagged protein from HEK-293 cells)
T2 sequence (P36888 1-993 F691L): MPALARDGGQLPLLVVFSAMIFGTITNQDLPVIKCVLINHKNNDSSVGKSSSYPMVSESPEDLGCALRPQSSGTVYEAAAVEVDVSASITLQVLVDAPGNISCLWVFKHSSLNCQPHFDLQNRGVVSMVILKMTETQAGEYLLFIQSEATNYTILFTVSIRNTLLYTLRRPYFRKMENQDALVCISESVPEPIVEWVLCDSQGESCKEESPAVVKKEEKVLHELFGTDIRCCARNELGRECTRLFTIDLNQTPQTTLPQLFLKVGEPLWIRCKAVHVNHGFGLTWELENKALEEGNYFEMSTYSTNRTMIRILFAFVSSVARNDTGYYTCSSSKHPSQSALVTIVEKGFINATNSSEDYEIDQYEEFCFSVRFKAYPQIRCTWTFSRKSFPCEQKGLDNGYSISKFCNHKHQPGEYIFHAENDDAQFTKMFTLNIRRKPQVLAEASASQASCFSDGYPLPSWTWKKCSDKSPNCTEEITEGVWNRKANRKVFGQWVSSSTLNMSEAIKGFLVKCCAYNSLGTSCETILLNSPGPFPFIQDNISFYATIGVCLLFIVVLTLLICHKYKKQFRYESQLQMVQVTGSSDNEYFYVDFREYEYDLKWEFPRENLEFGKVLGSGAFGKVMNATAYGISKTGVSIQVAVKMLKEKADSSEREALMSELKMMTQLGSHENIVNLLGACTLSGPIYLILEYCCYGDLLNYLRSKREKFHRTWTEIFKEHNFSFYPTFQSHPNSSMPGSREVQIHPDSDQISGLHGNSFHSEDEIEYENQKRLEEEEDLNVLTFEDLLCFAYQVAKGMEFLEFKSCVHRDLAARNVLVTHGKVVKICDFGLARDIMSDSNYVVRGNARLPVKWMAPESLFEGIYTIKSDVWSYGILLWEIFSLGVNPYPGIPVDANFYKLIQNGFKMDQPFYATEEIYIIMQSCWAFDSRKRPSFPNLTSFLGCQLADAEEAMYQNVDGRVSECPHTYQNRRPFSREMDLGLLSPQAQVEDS
Text: as §1, §2, §3

Row | SMILES | Kd [1] [nM] | Kd [2] [nM]
1 | FC(F)c1cn2c(-c3cccc(N[C@H]4CNC[C@@H]4F)n3)cnc2cn1 [Compound 16, 6-(6-(difluoromethyl)imidazo[1,2-a]pyrazin-3-yl)-N-((3S,4S)-4-fluoropyrrolidin-3-yl)pyridin-2-amine] | 3 | 0.32
2 | F[C@H]1CNC[C@@H]1Nc1cccc(-c2cnc3cnc(C4CC4)cn23)n1 [Compound 50, 6-(6-cyclopropylimidazo[1,2-a]pyrazin-3-yl)-N-((3S,4S)-4-fluoropyrrolidin-3-yl)pyridin-2-amine] | 1.9 | 0.1
3 | CC1(c2cn3c(-c4cccc(N[C@H]5CNCC56CC6)n4)cnc3cn2)CC1 [Compound 5, (R)-N-(6-(6-(1-methylcyclopropyl)imidazo[1,2-a]pyrazin-3-yl)pyridin-2-yl)-5-azaspiro[2.4]heptan-7-amine] | 0.88 | 0.023
4 | FC(F)c1cn2c(-c3cccc(N[C@H]4CNCC[C@@H]4F)n3)cnc2cn1 [Compound 25, 6-(6-(difluoromethyl)imidazo[1,2-a]pyrazin-3-yl)-N-((3S,4S)-4-fluoropiperidin-3-yl)pyridin-2-amine] | 3.6 | 0.074
5 | CC1(c2cn3c(-c4cccc(N[C@@H]5CCNC5)n4)cnc3cn2)CC1 [Compound 3, (R)-6-(6-(1-methylcyclopropyl)imidazo[1,2-a]pyrazin-3-yl)-N-(pyrrolidin-3-yl)pyridin-2-amine] | 1.4 | 0.071
6 | Cn1cc(-c2cn3c(-c4cccc(N[C@H]5CNC[C@@H]5F)n4)cnc3cn2)cn1 [Compound 52, N-((3S,4S)-4-fluoropyrrolidin-3-yl)-6-(6-(1-methyl-1H-pyrazol-4-yl)imidazo[1,2-a]pyrazin-3-yl)pyridin-2-amine] | 1.8 | 0.062
7 | CC(C)(O)c1cn2c(-c3cccc(N[C@H]4CNCC[C@@H]4F)n3)cnc2cn1 [Compound 31, 2-(3-(6-(((3S,4S)-4-fluoropiperidin-3-yl)amino)pyridin-2-yl)imidazo[1,2-a]pyrazin-6-yl)propan-2-ol] | 10 | 0.49
8 | CC(C)(O)c1cn2c(-c3cccc(N[C@@H]4CCCNC4)n3)cnc2cn1 [Compound 30, (R)-2-(3-(6-(piperidin-3-ylamino)pyridin-2-yl)imidazo[1,2-a]pyrazin-6-yl)propan-2-ol] | 22 | 1.8
9 | FC(F)(F)C1(c2cn3c(-c4cccc(N[C@@H]5CCNC5)n4)cnc3cn2)CC1 [Compound 10, (R)-N-(pyrrolidin-3-yl)-6-(6-(1-(trifluoromethyl)cyclopropyl)imidazo[1,2-a]pyrazin-3-yl)pyridin-2-amine] | 4.2 | 0.3
10 | CC1(c2cn3c(-c4cccc(N[C@H]5CNC[C@@H]5F)n4)cnc3cn2)CC1 [Compound 1, N-((3S,4S)-4-fluoropyrrolidin-3-yl)-6-(6-(1-methylcyclopropyl)imidazo[1,2-a]pyrazin-3-yl)pyridin-2-amine] | 1 | 0.11
11 | FC(F)(F)COc1cn2c(-c3cccc(N[C@@H]4CCNC4)n3)cnc2cn1 [Compound 38, (R)-N-(pyrrolidin-3-yl)-6-(6-(2,2,2-trifluoroethoxy)imidazo[1,2-a]pyrazin-3-yl)pyridin-2-amine] | 7.6 | 0.75
